One data set concerns ER/IL-6. The data set is described as follows: Endothelial Cell ER/IL-6 Assay, IL-6 promoter luciferase (Table 2). The format is cell-based, human. The conditions noted are these: ERα infected HAECT-1 cells, IL-1β; for Emax: read-out: IL6 luc % Efficacy; for IC50: read-out: IL6 luc IC50. An outline of the steps: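 HAECT-1 human aortic endothelial cells adenovirally expressing human ERα (or non-ER-infected controls) received compounds as 2× stocks with 2 ng/ml IL-1β and IL-6 promoter (1250 bp)-luciferase adenovirus for […] at 34 °C. ER/IL-6 was read as lysate luciferase and CK as the rate of A340 increase with CK reagent. IC50/EC50 came from four-parameter logistic fits.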

In another data set the test system is CK. In words: Creatine kinase assay in ERα infected HAECT-1 cells (Table 2). The format is cell-based, human. Particulars: for Emax: HAECT1, read-out: CK % Efficacy. The procedure:
T-175 flasks of 100% confluent HAECT-1 cells (immortalized human aortic endothelial cells) were washed with 8 ml of HBSS (HEPES buffered saline solution) and infected for fours hours with 6 ml of a 1:10 dilution of Ad5-wt-hERα virus (an adenovirus transfection vector that mediates CMV promoter driven expression of human ERα) in phenol red free Endothelial Cell Basal medium (Clonetics, San Diego, Calif., Catalog # CC-3129) containing 0.25% bovine serum albumin (EDM-BSA). After four hours, cells were washed with EDM-BSA and incubated overnight in the same medium. Following overnight incubation, cells were washed with EDM-BSA and infected for 2 hours with 6 ml of a 1:10 dilution of Ad5-3x(NFκB).Luc virus (Adenovirus luciferase expression vector driven by three repeats of the MHC NFκb sites 5′ to the thymidine kinase promoter) in EDM-BSA. After two hours, cells were washed and incubated at 34° C. for one hour. Cells were then washed, trypsinized, counted, and resuspended in 95% FBS/5% dimethylsulfoxide at a concentration of […], frozen as 1 or 5 ml aliquots in cryo-vials and stored at −150° C. Control (no ER infection) cells were processed as above without Ad5-wt-hERα virus infection.
ERα infected HAECT-1 cells or control cells were thawed, diluted 42× in warm EBM-BSA, plated into 96-well plates at 0.1 ml/well and incubated for 4 hours at 34° C. Test compounds were added to the cells at 2× stocks in EBM-BSA containing 2 ng/ml IL-1β Ad6-IL-6(1250 bp).Luc virus and plates were returned to the incubator (34° C.). After […], cells were lysed with 50 μl of Promega Cell Culture Lysis reagenet for about 5 minutes at room temperature on a shaker. After lysing, 15 μl of lysate is transferred to luminometer plates for luciferase determination. Luciferase activity is evaluated using a Perkin Elmer Victor2 1420 multilabel counter. Creatine kinase was determined from the rate of increase in A340 following addition of 100 μl of CK assay reagent (Sigma catalog no. 47-10) to the remainder of the cell lysate.
For IC50 and EC50 calculations, mean IL-6, luciferase or CK values versus log10 of the compound concentration were fitted to a four parameter logistic equation. The IC50/EC50 value, ‘Hill slope,’ upper and lower limits of the curve were iteratively estimated.

These results are taken from patent US20050256132A1, “Use of ER selective NF-kB inhibitors for the treatment of sepsis” (priority 2003, published 2005).

Where two headings read alike, the source gives them in different places.

As usually defined, the melting point is the temperature, or range, at which the solid turns liquid. Compound `COC[C@](C#N)(C(=O)OC)[C@H](c1ccccc1OC)c1cccc2ccccc12` (relative stereo) [Example 141, Methyl (2S*,3S*)-2-cyano-2-(methoxymethyl)-3-(2-methoxyphenyl)-3-(1-naphthyl)propanoate] displayed a melting point of 148.3 to 151 °C. In addition, the Emax with ER/IL-6 (Homo sapiens, HAECT1) came to 123%. Moreover, the Emax with CK (Homo sapiens) amounted to 39%.
The IC50 is the midpoint of a concentration-inhibition curve. By EC50 is commonly meant the concentration giving half of the maximal effect. Higher therefore signals a less potent agent. For the compound `COC(=O)[C@@](C#N)(Cc1ccccn1)[C@H](c1ccccc1OC)c1cccc2ccccc12` (relative stereo) [Example 143, Methyl (2S*,3S*)-2-cyano-3-(2-methoxyphenyl)-3-(1-naphthyl)-2-(pyridin-2-ylmethyl)propanoate], the melting point lay within 194.4 to 196.3 °C. Further, in the data set on ER/IL-6 (Homo sapiens, HAECT1), the Emax came to 91% and the concentration for half-maximal inhibition (IC50) was determined as 39 nM. Further, the half-maximal effective concentration (EC50) in the data set on CK (Homo sapiens, HAECT1) worked out at 74 nM. For the same compound, the Emax in the data set with CK (Homo sapiens) was determined as 38%.
`COC(=O)[C@@](C#N)(Cc1ccc(Br)cc1)[C@H](c1ccccc1OC)c1cccc2ccccc12` (relative stereo) [Example 152, Methyl (2S*,3S*)-2-(4-bromobenzyl)-2-cyano-3-(2-methoxyphenyl)-3-(1-naphthyl)propanoate] yielded a melting point of 218 to 219 °C. Moreover, in the data set with ER/IL-6 (Homo sapiens, HAECT1), the Emax is 130% and the IC50 amounted to 19 nM. For the same compound, in the data set on CK (Homo sapiens, HAECT1), a half-maximal effect (EC50) was put at 85 nM. For the same compound, the Emax with CK (Homo sapiens) was 14%.
Compound `COC(=O)[C@@](C#N)(Cc1ccc(-c2cccc(C(F)(F)F)c2)cc1)[C@H](c1ccccc1OC)c1cccc2ccccc12` (relative stereo) [Example 153, Methyl (2S*,3S*)-2-cyano-3-(2-methoxyphenyl)-3-(1-naphthyl)-2-{[3′-(trifluoromethyl)-1,1′-biphenyl-4-yl]methyl}propanoate] returned a melting point of 202 to 204.1 °C. In the data set with ER/IL-6 (Homo sapiens, HAECT1), the Emax came out at 150% and the IC50 came to 149 nM. In addition, the Emax in the data set with CK (Homo sapiens) turned out to be 15%.
Regarding `COCCOC[C@@](C#N)(C(=O)OC(C)(C)C)[C@@H](c1ccccc1OC)c1cccc2ccccc12` [Example 173, tert-Butyl (RR,SS)-2-cyano-2-[(2-methoxyethoxy)methyl]-3-(2-methoxyphenyl)-3-(1-naphthyl)propanoate], in the data set with ER/IL-6, the “IL6 luc % Efficacy” value turned out to be 124% and the IC50 was 72 nM. Also, the “CK % Efficacy” value in the data set on CK was −13%.
As for `COc1ccccc1C(c1cccc2ccccc12)C(C#N)(Cc1cccnc1)C(=O)N1CCN(c2ncccn2)CC1` (stereo not drawn) [Example 174, (RR,SS)-3-(2-methoxyphenyl)-3-(1-naphthyl)-2-(pyridin-3-ylmethyl)-2-[(4-pyrimidin-2-ylpiperazin-1-yl)carbonyl]propanenitrile], in the data set on ER/IL-6, the “IL6 luc % Efficacy” value stood at 49% and the half-maximal inhibitory concentration (IC50) amounted to 1820 nM. Besides, the “CK % Efficacy” value in the data set with CK was 34%.
For `COc1ccccc1[C@@H](c1cccc2ccccc12)[C@@](C#N)(Cc1cccnc1)C(=O)N1CCN(c2cnccn2)CC1` [Example 177, (RR,SS)-3-(2-methoxyphenyl)-3-(1-naphthyl)-2-[(4-pyrazin-2-ylpiperazin-1-yl)carbonyl]-2-(pyridin-3-ylmethyl)propanenitrile] the same measures were 91%, 1150 nM and −32%.
With `COc1ccccc1C(c1cccc2ccccc12)C(C#N)(Cc1cccnc1)C(=O)N1CC=C(c2c[nH]c3ccccc23)CC1` (stereo not drawn) [Example 178, (RR,SS)-3-[4-(1H-indol-3-yl)-3,6-dihydropyridin-1(2H)-yl]-2-[(2-methoxyphenyl)(1-naphthyl)methyl]-3-oxo-2-(pyridin-3-ylmethyl)propanenitrile], in the data set on ER/IL-6, the “IL6 luc % Efficacy” value is on record as 137% and the IC50 turned out to be 94 nM. In the data set with CK, the “CK % Efficacy” value is listed as −100%.
With `COc1ccccc1[C@H](c1cccc2ccccc12)[C@@](C)(C#N)C(=O)N1CCC2(CC1)OCCO2` [Example 188], in the data set with ER/IL-6, the “IL6 luc % Efficacy” value is 107% and the IC50 stood at 63 nM. In the data set on CK, the “CK % Efficacy” value was found to be 39%.
The matching figures for `COC[C@@](C#N)(C(=O)N1CCN(c2ncccn2)CC1)[C@@H](c1ccccc1OC)c1cccc2ccccc12` [Example 200, (RR,SS)-2-(methoxymethyl)-3-(2-methoxyphenyl)-3-(1-naphthyl)-2-[(4-pyrimidin-2-ylpiperazin-1-yl)carbonyl]propanenitrile]: 162%, 157 nM and 13%.
Consider `COCC(C#N)(C(=O)N1CCN(C2CCCCC2)CC1)C(c1ccccc1OC)c1cccc2ccccc12` (stereo not drawn) [Example 209, (RR,SS)-3-(4-cyclohexylpiperazin-1-yl)-2-(methoxymethyl)-2-[(2-methoxyphenyl)(1-naphthyl)methyl]-3-oxopropanenitrile], for which, in the data set with ER/IL-6, the “IL6 luc % Efficacy” value came out at 116% and the IC50 stood at 87 nM. Further, the “CK % Efficacy” value in the data set on CK was 2%.
In the case of `COCC(C#N)(C(=O)N1CCN(c2cnccn2)CC1)C(c1ccccc1OC)c1cccc2ccccc12` (stereo not drawn) [Example 212, (RR,SS)-2-(methoxymethyl)-3-(2-methoxyphenyl)-3-(1-naphthyl)-2-[(4-pyrazin-2-ylpiperazin-1-yl)carbonyl]propanenitrile], in the data set on ER/IL-6, the “IL6 luc % Efficacy” value is listed as 113% and the IC50 is 59 nM. Moreover, in the data set with CK, the “CK % Efficacy” value is 22% and the response was half-maximal at 138 nM (EC50).
The matching figures for `COCC(C#N)(C(=O)N1CC=C(c2c[nH]c3ccccc23)CC1)C(c1ccccc1OC)c1cccc2ccccc12` (stereo not drawn) [Example 213, (RR,SS)-3-[4-(1H-indol-3-yl)-3,6-dihydropyridin-1(2H)-yl]-2-(methoxymethyl)-2-[(2-methoxyphenyl)(1-naphthyl)methyl]-3-oxopropanenitrile]: 103%, 5.6 nM, 26% and 64 nM.
With `COc1ccccc1C(c1cccc2ccccc12)C(C#N)(COCc1ccccc1)C(=O)N1CCN(C2CCCCC2)CC1` (stereo not drawn) [Example 217, (RR,SS)-2-[(benzyloxy)methyl]-3-(4-cyclohexylpiperazin-1-yl)-2-[(2-methoxyphenyl) (1-naphthyl)methyl]-3-oxopropanenitrile], in the data set on ER/IL-6, the “IL6 luc % Efficacy” value is recorded as 12% and the IC50 came to 203 nM. Also, the “CK % Efficacy” value in the data set on CK is given as −37%.
On to `COc1ccccc1[C@@H](c1cccc2ccccc12)[C@@](C#N)(COCc1ccccc1)C(=O)N1CCN(c2ncccn2)CC1` [Example 218, (RR,SS)-2-[(benzyloxy)methyl]-3-(2-methoxyphenyl)-3-(1-naphthyl)-2-[(4-pyrimidin-2-ylpiperazin-1-yl)carbonyl]propanenitrile], for which, in the data set with ER/IL-6, the “IL6 luc % Efficacy” value came to 101% and the IC50 came to 103 nM. The “CK % Efficacy” value with CK is listed as −12%.
As for `COc1ccccc1[C@@H](c1cccc2ccccc12)[C@@](C#N)(COCc1ccccc1)C(=O)N1CCN(c2cnccn2)CC1` [Example 220, (RR,SS)-2-[(benzyloxy)methyl]-3-(2-methoxyphenyl)-3-(1-naphthyl)-2-[(4-pyrazin-2-ylpiperazin-1-yl)carbonyl]propanenitrile], in the data set with ER/IL-6, the “IL6 luc % Efficacy” value is reported as 128% and the half-maximal inhibitory concentration (IC50) worked out at 344 nM. Further, the “CK % Efficacy” value in the data set with CK was 6%.
On to `COC[C@@](C#N)(C(=O)N1CCN(C2CCCCC2)CC1)[C@@H](c1ccccc1OC)c1cccc2ccccc12` [Example 222, (2R,3R)-3-(4-cyclohexylpiperazin-1-yl)-2-(methoxymethyl)-2-[(2-methoxyphenyl)(1-naphthyl)methyl]-3-oxopropanenitrile], for which, in the data set on ER/IL-6, the “IL6 luc % Efficacy” value was found to be 170% and the IC50 came out at 304 nM. The midpoint of the response with CK, the EC50, lay at 33 nM.
Regarding `COC[C@](C#N)(C(=O)N1CC=C(c2c[nH]c3ccccc23)CC1)[C@H](c1ccccc1OC)c1cccc2ccccc12` [Example 225], in the data set with ER/IL-6, the “IL6 luc % Efficacy” value was found to be 83% and the IC50 turned out to be 1600 nM. In addition, the “CK % Efficacy” value in the data set with CK is −12%.
`COC[C@@](C#N)(C(=O)N1CC=C(c2c[nH]c3ccccc23)CC1)[C@@H](c1ccccc1OC)c1cccc2ccccc12` [Example 226]: in the data set on ER/IL-6, the “IL6 luc % Efficacy” value worked out at 115% and the concentration for half-maximal inhibition (IC50) is 220 nM. Moreover, in the data set with CK, the “CK % Efficacy” value worked out at 18% and the EC50 came to 138 nM.
